Assay results published in patent US20260125371A1, “METHOD FOR INHIBITING CLOSTRIDIOIDES DIFFICILE SPORE GERMINATION” (UNIVERSITY OF NOTRE DAME DU LAC, priority 2022, published 2026).
≈ marks a conversion by molar mass, not a printed value. Entries after “also recorded” stand apart in the source; their conditions may differ. Where two headings read alike, the source gives them in different places.

Experiments:
[1] = Solubility observed during characterisation; details: DMSO, room temperature
[2] = system: C. difficile ATCC 43255; experiment: Determination of minimal-inhibitory concentrations (microdilution), C. difficile ATCC 43255; type: cell-based, Clostridioides difficile; details: for MIC: Clostridioides difficile
[3] = system: HepG2 cells; experiment: XTT cytotoxicity assay; type: cell-based; details: Homo sapiens, HepG2, read-out: XTT IC50
[4] = system: THP-1 cells; experiment: Lactate dehydrogenase (LDH) cytotoxicity assay; type: cell-based, human; details: Homo sapiens
[5] = system: Lactobacillus reuteri HM-102; details: cited from earlier work
[6] = system: C. difficile ATCC 43255; experiment: Minimal-bactericidal concentration (MBC); type: cell-based, Clostridioides difficile
[7] = system: C. difficile ATCC 43255 vegetative cells; experiment: Mode of action by scanning electron microscopy (SEM); details: 8× MIC for 24 h
[8] = system: P. aeruginosa ATCC27853; experiment: MIC against P. aeruginosa; type: cell-based; details: Pseudomonas aeruginosa, ATCC27853
[9] = system: Veillonella sp. HM-49; details: cited from earlier work
[10] = system: E. coli ATCC25922; experiment: MIC against E. coli; type: cell-based; details: Escherichia coli, ATCC25922
[11] = system: Bacteroides fragilis HM-709; details: cited from earlier work
[12] = system: A. baumanii ATCC17961; experiment: MIC against A. baumanii; type: cell-based; details: Acinetobacter baumannii, ATCC17961
[13] = system: K. pneumoniae ATCC700603; experiment: MIC against K. pneumoniae; type: cell-based; details: Klebsiella pneumoniae, ATCC700603
[14] = system: Gram-negative bacteria; type: cell-based
[15] = system: Clostridioides difficile infection; details: CDI patients; cited from earlier work
[16] = system: C. difficile ATCC 43255; type: cell-based, Clostridioides difficile
[17] = system: Lactobacillus gasseri HM-644; details: cited from earlier work
[18] = system: E. aerogenes ATCC35029; experiment: MIC against E. aerogenes; type: cell-based; details: Klebsiella aerogenes, ATCC35029
[19] = system: Fusobacterium nucleatum HM-992; details: cited from earlier work
[20] = system: extended panel of Gram-positive bacteria; experiment: MIC range over extended panel of Gram-positive bacteria; type: cell-based
[21] = system: Bifidobacterium longum HM-846; details: cited from earlier work
[22] = ATCC43255, 24 h, C. difficile ATCC 43255, 24 h, read-out: MIC (μg/mL) 24 h

## Cl.O=[N+]([O-])c1c[nH]c(-c2nc(-c3ccc(CN4CCCC4)cc3)no2)n1 [Compound 130]
[1]
  solubility: barely soluble in DMSO
[2]; C. difficile ATCC 43255, 48-h incubation, Hydrochloride
  MIC (μg/mL) 48 h: >128 µg/mL
[2]; [22]
  MIC: > 128 µg/mL

## O=[N+]([O-])c1cnc(-c2nc(-c3ccc(OC4CCC4)cc3)no2)[nH]1 [Compound 131, 3-(4-Cyclobutoxyphenyl)-5-(5-nitro-1H-imidazol-2-yl)-1,2,4-oxadiazole]
[2]; [22]
  MIC: 0.5 µg/mL (≈ 1.53 µM)
[2]; ATCC43255, Table 1, strain ATCC 43255, read-out: MIC C. difficile
  MIC: 0.25 µg/mL (≈ 0.764 µM)
[3]
  IC50: 41.9 ± 4.5 µg/mL (≈ 128 µM)
[4]; THP-1, 24 h, read-out: LDH (IC50)
  IC50: > 128 µg/mL
[4]; THP-1, read-out: toxicity IC50 (LDH assay)
  IC50: > 50 µg/mL

## CN[C@H](CC(C)C)C(=O)N[C@H]1C(=O)N[C@@H](CC(N)=O)C(=O)N[C@H]2C(=O)N[C@H]3C(=O)N[C@H](C(=O)N[C@H](C(=O)O)c4cc(O)cc(O)c4-c4cc3ccc4O)[C@H](O)c3ccc(c(Cl)c3)Oc3cc2cc(c3O[C@@H]2O[C@H](CO)[C@@H](O)[C@H](O)[C@H]2O[C@H]2C[C@](C)(N)[C@H](O)[C@H](C)O2)Oc2ccc(cc2Cl)[C@H]1O [VAN, vancomycin]
[5]
  MIC: >32 µg/mL
[6]
  bactericidal or bacteriostatic: bacteriostatic
[7]
  effect on vegetative cells by SEM: damage the cell wall; also recorded: same effect
[8]
  MIC: > 128 µg/mL
[9]
  MIC: >32 µg/mL
[10]
  MIC: > 128 µg/mL
[11]
  MIC: 16 µg/mL (≈ 11 µM)
[12]
  MIC: > 128 µg/mL
[13]
  MIC: > 128 µg/mL
[14]
  activity against Gram-negative organisms: no activity
[15]
  recurrence of infection: 24%
[16]
  increase in MIC on serial passage: 16 fold
[17]
  MIC: 1 µg/mL (≈ 0.69 µM)
[18]
  MIC: > 128 µg/mL
[19]
  MIC: 0.25 µg/mL (≈ 0.173 µM)
[20]
  activity against Gram-positive bacteria: has activity
[21]
  MIC: 0.25 µg/mL (≈ 0.173 µM)
